In patent publication US5670506A, “Halogen, isothiocyanate or azide substituted xanthines” (Cell Therapeutics, Inc., priority 1993, dated 1997):

Key:
murine splenocytes = experiment: inhibition of murine splenocyte proliferation stimulated by anti-mu and IL-4; type: cell-based; conditions: FIG. 5; anti-mu (10 μg/ml) and IL-4 (12.5 ng/ml)
Method: Drug was added to the cells at the doses indicated two hours prior to activation with anti-mu and IL-4. This in vitro assay is a model for immune suppression and treatment or prevention of autoimmune diseases. […] Background counts were less than 200 cpm.
There are a series of in vitro assays that can be used to measure immunosuppressive activity of a particular compound. These assays are a predictive model for treatment or prevention of autoimmune diseases, such as diabetes, lupus, arthritis, and the like. A first assay measures immunosuppressive activity of a drug at the B cell level. Spleens from adult mice contain immature B cells that express surface IgM. Cross-linking the surface IgM with an anti-mu antibody results in B cell proliferation. Additionally, this activation results in an increased expression of interleukin-4 receptors(IL-4R) on the surface of such cells. IL-4 acts as a growth factor for B cells and will increase the amount of proliferation induced by anti-mu. In the first assay, a mixture of anti-mu and murine IL-4 is added to murine splenocytes to cause their proliferation. Mice spleens are obtained from adult mice and a single cell suspension is prepared in RPMI 1640 medium supplemented with 10% FCS. […] Proliferation is determined on the third day with a pulse of tritiated thymidine. […]

murine thymocytes = experiment: inhibition of murine thymocyte proliferation stimulated by ConA and IL-1α; type: cell-based, murine (Balb/C mice); conditions: FIG. 4, 4 days
Method: The drugs (inventive compounds) were added to the cells at the doses indicated two hours prior to activation with ConA and IL-1α. […] Background counts were less than 200 cpm. This in vitro assay is a model for immune suppression and treatment or prevention of autoimmune diseases.
A third assay measures an ability of an inventive compound to inhibit IL-2-induced proliferation of murine thymocytes. Thymus glands are obtained from 4-6 week old mice and plated as a single cell suspension into flat bottomed wells in RPMI 1640 medium supplemented with 10% fetal calf serum. The inventive compounds are added to appropriate wells and the cells are incubated for 1-2 hrs. Concanavilin A (ConA, 0.25 μg/ml) and IL-1 (20 ng/ml) are added and the plates are incubated for 4 days. Cell proliferation is determined as above. There are also variations for this assay that follow the same basic stimulation and measure inhibition of proliferation format. […]
This example illustrates the effect of CT1514, CT1525, CT1527, CT1529, CT1577, CT1583, CT1589, CT1595, CT2519, CT1205, CT1801 and CT1908 on inhibition of murine thymocyte proliferation stimulated by Concanavalin A (ConA) and interleukin-2 (IL-2) (FIG. 4). […] The cells were harvested and incorporated tritiated thymidine was determined in a liquid scintillation counter. […]

mast cell line (PT-18) = experiment: total PA mass in mast cell line stimulated by IgE and DNP; type: cell-based; conditions: FIG. 13; IgE and DNP stimulation, in words
human stromal cells = experiment: inhibition of proliferation of human stromal cells stimulated with PDGF; type: cell-based
Method: (§1) This assay is a model for restenosis and treatment of atherosclerosis and coronary artery disease. Stromal cells were starved in serum-free media for one day and then stimulated with 50 ng/ml PDGF-BB. The drags were added at the indicated concentrations one hour prior to PDGF stimulation. Tritiated thymidine was added for one day at the time of PDGF stimulation and the cells were harvested and counted by liquid scintillation counting 24 hrs later. Background counts (i.e., starved cells) were approximately 1% of control levels.
Another assay for measuring activity of the inventive compounds involves determining PDGF (platelet derived growth factor) proliferative response using human-derived stromal cells. Human stromal cells are plated (e.g., about 2000 cells per well) in defined media (e.g., 69% McCoy's, 12.5% fetal calf serum, 12.5% horse serum, 1% antibiotics, 1% glutamine, 1% vitamin supplement, 0.8% essential amino acids, 1% sodium pyruvate, 1% sodium bicarbonate, 0.4% non-essential amino acids and 0.36% hydrocortisone). Two to three days later, the stromal cells are starved in serum-free media. Twenty four hours later, the cells are treated with a stimulating agent, such as PDGF-AA, PDGF-BB or basic FGF (fibroblast growth factor) with or without IL-1α or TNF, and tritiated thymidine. Cell proliferation is determined by liquid scintillation counting.
as §1, with “drugs” for “drags”

Cn1cnc2c1c(=O)n(CCCCC(=O)CCl)c(=O)n2C [CT1595, 1-(6-chloro-5-oxohexyl)-3,7-dimethylxanthine]
inhibition of splenocyte proliferation (murine splenocytes): most potent inhibitors of splenocyte proliferation in a dose-response manner
inhibition of thymocyte proliferation (murine thymocytes): most potent drugs
IC50 for accumulation of PA (mast cell line (PT-18)): low nanomolar range
inhibition of human stromal cell proliferation (human stromal cells; FIG. 7, 50 ng/ml PDGF-BB, in words): strongly inhibit proliferation
IC50 (human stromal cells; Homo sapiens, read-out: IC50, inhibition of human stromal cell proliferation): < 10 µM
